Results on four compounds are retold here after patent US20240343747A1, “Heteroaryl compounds as inhibitors of TYK2, composition and application thereof” (Accro Bioscience (HK) Limited, priority 2021, published 2024).

The term Kd denotes a measure of binding affinity in units of concentration. What is called fraction unbound is free concentration divided by total concentration. The term AUC denotes concentration integrated over time. In general, Vd refers to the apparent volume that relates the amount in the body to the concentration in plasma or blood. A word on the clearance: it is the volume of plasma or blood freed of the substance per unit of time. The term half-life denotes how long it takes for the measured level to halve. The Cmax is the maximum level reached in the sampled fluid or tissue. Usually Tmax stands for the time from dosing to the highest level.

Data set [1] has as its target JAK1 JH1 (Homo sapiens (Human), UniProt P23458). Kind of data set: Competitive binding assay (kinase-tagged phage, qPCR), JAK1 JH1. How it is done:
For most assays, kinase-tagged T7 phage strains were prepared in an E. coli host derived from the BL21 strain. E. coli were grown to log-phase and infected with T7 phage and incubated with shaking at 32° C. until lysis. The lysates were centrifuged and filtered to remove cell debris. The remaining kinases were produced in HEK-293 cells and subsequently tagged with DNA for qPCR detection. Streptavidin coated magnetic beads were treated with biotinylated small molecule ligands for 30 minutes at room temperature to generate affinity resins for kinase assays. The liganded beads were blocked with excess biotin and washed with blocking buffer (SeaBlock (Pierce), 1% BSA, 0.05% Tween 20, 1 mM DTT) to remove unbound ligand and to reduce non-specific binding. […] Test compounds were prepared as 111X stocks in 100% DMSO. Dissociation constants (Kds) were determined using an 11-point 3-fold compound dilution series with three DMSO control points. All compounds for Kd measurements are distributed by acoustic transfer (non-contact dispensing) in 100% DMSO. The compounds were then diluted directly into the assays such that the final concentration of DMSO was 0.9%. All reactions performed in polypropylene 384-well plate. Each was a final volume of 0.02 ml. The assay plates were incubated at room temperature with shaking for 1 hour and the affinity beads were washed with wash buffer (1×PBS, 0.05% Tween 20). The beads were then re-suspended in elution buffer (1×PBS, 0.05% Tween 20, 0.5 μM nonbiotinylated affinity ligand) and incubated at room temperature with shaking for 30 minutes. The kinase concentration in the eluates was measured by qPCR.
An 11-point 3-fold serial dilution of each test compound was prepared in 100% DMSO at 100× final test concentration and subsequently diluted to 1× in the assay (final DMSO concentration=1%). Most Kds were determined using a compound top concentration=30,000 nM. If the initial Kd determined was <0.5 nM (the lowest concentration tested), the measurement was repeated with a serial dilution starting at a lower top concentration.
Binding constants (Kds) were calculated with a standard dose-response curve using the Hill equation: […]
The Hill Slope was set to −1.
Curves were fitted using a non-linear least square fit with the Levenberg-Marquardt algorithm.
Background: Real-time PCR tracks product formation cycle by cycle.

Data set [2] is described as follows: Plasma protein binding test, mouse. It counts as in vitro ADME. How it is done: (§1) • 1. Test compound and control compound were dissolved in dimethyl sulfoxide (DMSO) to achieve 10 mM stock solutions. DMSO working solutions were prepared at 400 μM. To prepare the loading matrix, compound working solutions (5 μL) were added in a 1:200 ratio to blank matrix (995 μL), and mixed thoroughly. • 2. To prepare the time zero (TO) samples to be used for recovery determination, 50 μL aliquots of loading matrix were transferred in triplicate to the sample collection plate. The samples were immediately matched with opposite blank buffer to obtain a final volume of 100 μL of 1:1 matrix/dialysis buffer (v/v) in each well. 500 μL of stop solution were added to these TO samples. They were then stored at 2-8° C. pending further processes along with other post-dialysis samples. • 3. To load the dialysis device, an aliquot of 150 μL of the loading matrix was transferred to the donor side of each dialysis well in triplicate, and 150 μL of the dialysis buffer was loaded to the receiver side of the well. The dialysis plate was placed in a humidified incubator at 37° C. with 5% CO2 on a shaking platform that rotated slowly (about 100 rpm) for 4 hours • 4. At the end of the dialysis, aliquots of 50 μL of samples were taken from both the buffer side and the matrix side of the dialysis device. These samples were transferred into new 96-well plates. Each sample was mixed with an equal volume of opposite blank matrix (buffer or matrix) to reach a final volume of 100 μL of 1:1 matrix/dialysis buffer (v/v) in each well. All samples were further processed by adding 500 μL of stop solution containing internal standards. The mixture was vortexed and centrifuged at 4000 rpm for about 20 minutes. An aliquot of 100 μL of supernatant of all the samples was then removed for LC-MS/MS analysis • 5. The single blank samples were prepared by transferring 50 pL of blank matrix to a 96 well plate and adding 50 μL of blank PBS buffer to each well. The blank plasma must match the species of plasma used in the plasma side of the well. […]
(§2) The % Unbound and % Bound were calculated using the following equations: […]

A short description of data set [3]: Plasma protein binding test, monkey. It counts as in vitro ADME. How it is done:
as §1, with “device.” for “device. These samples were transferred into new 96-well plates. Each sample was mixed with an equal volume of opposite blank matrix (buffer or matrix) to reach a final volume of 100 μL of 1:1 matrix/dialysis buffer (v/v) in each well. All samples were further processed by adding 500 μL of stop solution containing internal standards. The mixture was vortexed and centrifuged at 4000 rpm for about 20 minutes. An aliquot of 100 μL of supernatant of all the samples was then removed for LC-MS/MS analysis • 5. The single blank samples were prepared by transferring 50 pL of blank matrix to a 96 well plate and adding 50 μL of blank PBS buffer to each well. The blank plasma must match the species of plasma used in the plasma side of the well.”
as §2

Data set [4] can be described thus: Pharmacokinetic evaluation in mice. The conditions noted are these: for plasma exposure and bioavailability in mice (in words): conclusion from Table 9; for AUC / Vd / clearance / half-life / Cmax / Tmax: male, mouse, plasma; for AUC / Vd / clearance / half-life / Cmax / Tmax / F: mice. Format: in vivo. The procedure:
The mice pharmacokinetic characteristics of compounds were tested by standard protocols. The candidate compounds were made into clear solution for single intravenous injection (i.v.) and suspension for oral administration (p.o.). Intravenous vehicle is 5% DMSO+10% Solutol+85% Saline. Of which adjusts pH to 3 for B37. While oral vehicle is 0.5% CMCNa for B2 and B22, 5% DMSO+10% Solutol+85% Saline, PH˜3 for B37, 5% DMSO+10% Solutol+85% Saline for B41. The experiment used 6 male mice and 3 mice for intravenous at a dose of 2 mg/kg. Plasma samples were collected at 0 h (before dosing) and 0.083 h, 0.25 h, 0.5 h, 1 h, 2 h, 4 h, 8 h, 24 h after dosing. Another 3 mice were orally administrated with a dose of 10 mg/kg. Plasma samples were collected at 0 h (before dosing) and 0.25 h, 0.5 h, 1 h, 2 h, 4 h, 6 h, 8 h, 24 h after dosing.
Blood samples were placed in tubes containing K2-EDTA and stored on ice until centrifuged. The blood samples were centrifuged at 6800 g for 6 minutes at 2-8° C. within 1 h after collected, and stored frozen at approximately −80° C.
The analytical results were confirmed using quality control samples for intra-assay variation. The accuracy of >66.7% of the quality control samples and 50% of all QC samples at each concentration level were between 80-120% of the known value(s).
Standard set of parameters including area under the curve (AUC(0-t) and AUC(0-∞)), elimination half-live (T1/2), maximum plasma concentration (Cmax), time to reach maximum plasma concentration (Tmax) were calculated using noncompartmental analysis modules in FDA certified pharmacokinetic program Phoenix WinNonlin 7.0 (Pharsight, USA) by the Study Director.

Some results are limits rather than exact numbers.

JAK1 JH1, sequence (P23458 875-1153): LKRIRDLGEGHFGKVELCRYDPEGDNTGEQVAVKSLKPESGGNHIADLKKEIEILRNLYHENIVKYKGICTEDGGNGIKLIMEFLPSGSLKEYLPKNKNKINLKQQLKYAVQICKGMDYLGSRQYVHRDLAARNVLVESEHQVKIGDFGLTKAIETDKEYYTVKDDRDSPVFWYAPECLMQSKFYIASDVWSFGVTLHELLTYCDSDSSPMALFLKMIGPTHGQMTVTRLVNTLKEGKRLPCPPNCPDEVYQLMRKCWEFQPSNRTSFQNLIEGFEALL

Consider `CCC(=O)c1cnc(NC(=O)C2CC2)cc1Nc1cccc(-c2cc(P(C)(C)=O)n(C)n2)c1OC` [Compound B2, N-(4-((3-(5-(dimethylphosphoryl)-1-methyl-1H-pyrazol-3-yl)-2-methoxyphenyl)amino)-5-propionylpyridin-2-yl)cyclopropanecarboxamide], for which the Kd in data set [1] is greater than 30 µM. The compound also had an unbound share (fraction unbound) at 4 h, 2 μM in data set [2] of 0.067. In data set [3], this compound had a fraction unbound at 4 h, 2 μM of 0.042. For the same compound, the “plasma exposure and bioavailability in mice (in words)” value (“plasma exposure and bioavailability” below) in data set [4] was “good plasma exposure and bioavailability”. In data set [4] (iv, i.v. 2 mg/kg), this compound had an AUC of 1940 ng·h/mL, a Vd of 1.5 L/kg, a clearance of 17.2 mL/min/kg and a half-life of 60 min. Besides, in data set [4] (po, p.o. 10 mg/kg), the AUC amounted to 4140 ng·h/mL, the Cmax was found to be 1180 ng/mL and the Tmax stood at 180 min. Moreover, the F in data set [4] (p.o. 10 mg/kg) is 43%.

In turn, `[2H]C([2H])([2H])n1nc(-c2cccc(Nc3cc(NC(=O)C4CC4)ncc3C(=O)CC)c2OC)cc1P(C)(C)=O` [Compound B22] gave a fraction unbound at 4 h, 2 μM in data set [2] of 0.03. Also, the “plasma exposure and bioavailability” value in data set [4] was “good plasma exposure and bioavailability”. For the same compound, in data set [4] (iv, i.v. 2 mg/kg), the AUC is 1350 ng·h/mL, the Vd was 3.1 L/kg, the clearance is 25.4 mL/min/kg and the half-life is 84 min. In data set [4] (po, p.o. 10 mg/kg), the AUC is 6370 ng·h/mL, the Cmax came to 2630 ng/mL and the Tmax is 19.8 min. In data set [4] (p.o. 10 mg/kg), the F stood at 94%.

`CCC(=O)c1cnc(NC(=O)C2CC2)cc1Nc1cccc(-c2cc(P(=O)(C3CC3)C3CC3)n(C)n2)c1OC` [Compound B37, N-(4-((3-(5-(dicyclopropylphosphoryl)-1-methyl-1H-pyrazol-3-yl)-2-methoxyphenyl)amino)-5-propionylpyridin-2-yl)cyclopropanecarboxamide]: the Kd in data set [1] is greater than 30 µM. In data set [4], the “plasma exposure and bioavailability” value is “good plasma exposure and bioavailability”. Moreover, in data set [4] (iv, i.v. 2 mg/kg), the AUC was 2160 ng·h/mL, the Vd was determined as 0.84 L/kg, the clearance is 15.5 mL/min/kg and the half-life was 37.8 min. Also, in data set [4] (po, p.o. 10 mg/kg), the AUC stood at 8420 ng·h/mL, the Cmax came to 4250 ng/mL and the Tmax was 25.2 min. For the same compound, in data set [4] (p.o. 10 mg/kg), the F stood at 78%.

In turn, `[2H]C([2H])([2H])NC(=O)c1nnc(NC(=O)C2CC2)cc1Nc1cccc(-c2cc(P(=O)(C3CC3)C3CC3)n(C)n2)c1OC` [Compound B41, 6-(cyclopropanecarboxamido)-4-((3-(5-(dicyclopropylphosphoryl)-1-methyl-1H-pyrazol-3-yl)-2-methoxyphenyl)amino)-N-(methyl-d3)pyridazine-3-carboxamide] gave a fraction unbound at 4 h, 2 μM in data set [2] of 0.018. This compound also gave a fraction unbound at 4 h, 2 μM in data set [3] of 0.076. Further, in data set [4], the “plasma exposure and bioavailability” value is “good plasma exposure and bioavailability”. Also, in data set [4] (iv, i.v. 2 mg/kg), the AUC came out at 2670 ng·h/mL, the Vd amounted to 1.2 L/kg, the clearance was 12.7 mL/min/kg and the half-life was 66 min. In data set [4] (po, p.o. 10 mg/kg), the AUC worked out at 11900 ng·h/mL, the highest level (Cmax) was 6560 ng/mL and the Tmax turned out to be 30 min. In data set [4] (p.o. 10 mg/kg), the F is 89%.
